Laboratory results: US10660900B2 (priority 2014, dated 2020)

Assays:
[1] = QT interval in opioid-dependent patients; assay type: in vivo, human; settings: 60, 120, 180 mg; first 24 hours; correlated with serum concentration
Description: Patients' QT intervals were evaluated at regular time points throughout the study. […] A goodness-of-fit plot for the observed and predicted relation between noribogaine plasma levels and ΔΔQTc1 is provided in FIG. 9C.

[2] = target: calf OPRK (Bos taurus, UniProt Q2KIP6); settings: cited from earlier work
[3] = target: human OPRM (Homo sapiens, UniProt P35372); assay type: cell-based; design: host or cells: CHO-K1
[4] = Treatment emergent adverse events in opioid-dependent patients, single dose

Sequence of human OPRM (P35372 whole entry): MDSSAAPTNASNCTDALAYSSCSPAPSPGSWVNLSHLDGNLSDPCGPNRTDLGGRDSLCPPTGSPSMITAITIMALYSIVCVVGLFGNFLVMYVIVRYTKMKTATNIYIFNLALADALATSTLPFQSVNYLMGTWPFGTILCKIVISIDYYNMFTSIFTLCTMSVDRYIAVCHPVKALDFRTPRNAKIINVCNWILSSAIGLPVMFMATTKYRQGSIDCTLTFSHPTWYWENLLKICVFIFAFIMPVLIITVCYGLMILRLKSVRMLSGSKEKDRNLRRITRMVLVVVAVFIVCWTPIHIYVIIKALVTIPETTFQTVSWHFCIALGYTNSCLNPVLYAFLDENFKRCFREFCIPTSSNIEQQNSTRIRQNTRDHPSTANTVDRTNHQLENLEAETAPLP
Sequence of calf OPRK (Q2KIP6 whole entry): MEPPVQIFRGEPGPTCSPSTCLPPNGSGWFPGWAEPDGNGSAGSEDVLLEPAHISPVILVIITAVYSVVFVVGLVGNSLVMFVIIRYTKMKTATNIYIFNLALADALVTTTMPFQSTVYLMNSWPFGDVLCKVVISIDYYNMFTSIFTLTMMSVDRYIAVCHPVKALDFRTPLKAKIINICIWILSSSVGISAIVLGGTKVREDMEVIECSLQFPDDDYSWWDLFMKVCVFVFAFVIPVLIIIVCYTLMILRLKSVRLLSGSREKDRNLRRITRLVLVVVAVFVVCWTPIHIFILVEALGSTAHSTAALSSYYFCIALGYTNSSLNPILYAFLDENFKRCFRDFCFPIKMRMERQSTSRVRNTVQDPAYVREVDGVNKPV

SMILES: CC[C@H]1CC2C[C@H]3c4[nH]c5ccc(O)cc5c4CCN(C2)C13 [Noribogaine, noribogaine]
- QT interval prolongation (ΔQTcI) [1]: dose-dependent increase in QT interval prolongation
- Ki ([2]; calf OPRK): 960 nM
- pKi ([2]; calf receptor, literature): 6.0
- Efficacy [3]: 3%
- Efficacy (inhibition) [3]: −100~ %
- agonism of β-Arrestin-2 recruitment at OPRM [3]: not an agonist at OPRM
- e-coupling (pKi-pKe) [3]: ~1.10
- inhibition of agonist response [3]: 60-100%
- pEC50 [3]: 5.9
- Catheter Site Infection ([4]; 60 mg noribogaine (N = 6)): 0
- Catheter Site Pain ([4]; 60 mg noribogaine (N = 6)): 0
- Catheter Site Related Reaction ([4]; 60 mg noribogaine (N = 6)): 0
- Cellulitis ([4]; 60 mg noribogaine (N = 6)): 0
- Diarrhoea ([4]; 60 mg noribogaine (N = 6)): 0
- Diy Mouth ([4]; 60 mg noribogaine (N = 6)): 0
- Ear and Labyrinth Disorders ([4]; 60 mg noribogaine (N = 6)): 0
- Epistaxis ([4]; 60 mg noribogaine (N = 6)): 0
- Euphoric Mood ([4]; 60 mg noribogaine (N = 6)): 0
- General Disorders and Administration Site Conditions ([4]; 60 mg noribogaine (N = 6)): 0
- Hyperaesthesia ([4]; 60 mg noribogaine (N = 6)): 0
- Infections and Infestations ([4]; 60 mg noribogaine (N = 6)): 0
- Limb Discomfort ([4]; 60 mg noribogaine (N = 6)): 0
- Malaise ([4]; 60 mg noribogaine (N = 6)): 0
- Nausea ([4]; 60 mg noribogaine (N = 6)): 0
- Oropharyngeal Pain ([4]; 60 mg noribogaine (N = 6)): 0
- Pseudoparalysis ([4]; 60 mg noribogaine (N = 6)): 0
- Respiratory, Thoracic and Mediastinal Disorders ([4]; 60 mg noribogaine (N = 6)): 0
- Rhinorrhoea ([4]; 60 mg noribogaine (N = 6)): 0
- Skin Discomfort ([4]; 60 mg noribogaine (N = 6)): 0
- Skin Irritation ([4]; 60 mg noribogaine (N = 6)): 0
- Skin and Subcutaneous Tissue Disorders ([4]; 60 mg noribogaine (N = 6)): 0
- Somnoience ([4]; 60 mg noribogaine (N = 6)): 0
- Tinnitus ([4]; 60 mg noribogaine (N = 6)): 0
- Tremor ([4]; 60 mg noribogaine (N = 6)): 0
- Urinary Tract Infection ([4]; 60 mg noribogaine (N = 6)): 0
- Vomiting ([4]; 60 mg noribogaine (N = 6)): 0
- Back Pain ([4]; 120 mg noribogaine (N = 6)): 0
- Catheter Site Infection ([4]; 120 mg noribogaine (N = 6)): 0
- Catheter Site Related Reaction ([4]; 120 mg noribogaine (N = 6)): 0
- Depressed Mood ([4]; 120 mg noribogaine (N = 6)): 0
- Dry Eye ([4]; 120 mg noribogaine (N = 6)): 0
- Dyspepsia ([4]; 120 mg noribogaine (N = 6)): 0
- Euphoric Mood ([4]; 120 mg noribogaine (N = 6)): 0
- Limb Discomfort ([4]; 120 mg noribogaine (N = 6)): 0
- Malaise ([4]; 120 mg noribogaine (N = 6)): 0
- Musculoskeletal and Connective Tissue Disorders ([4]; 120 mg noribogaine (N = 6)): 0
- Psychiatric Disorders ([4]; 120 mg noribogaine (N = 6)): 0
- Somnoience ([4]; 120 mg noribogaine (N = 6)): 0
- Urinary Tract Infection ([4]; 120 mg noribogaine (N = 6)): 0
- Catheter Site Infection ([4]; 180 mg noribogaine (N = 6)): 0
- Catheter Site Pain ([4]; 180 mg noribogaine (N = 6)): 0
- Depressed Mood ([4]; 180 mg noribogaine (N = 6)): 0
- Diarrhoea ([4]; 180 mg noribogaine (N = 6)): 0
- Dry Eye ([4]; 180 mg noribogaine (N = 6)): 0
- Dyspepsia ([4]; 180 mg noribogaine (N = 6)): 0
- Ear and Labyrinth Disorders ([4]; 180 mg noribogaine (N = 6)): 0
- Epistaxis ([4]; 180 mg noribogaine (N = 6)): 0
- Euphoric Mood ([4]; 180 mg noribogaine (N = 6)): 0
- Hyperaesthesia ([4]; 180 mg noribogaine (N = 6)): 0
- Malaise ([4]; 180 mg noribogaine (N = 6)): 0
- Oropharyngeal Pain ([4]; 180 mg noribogaine (N = 6)): 0
- Pseudoparalysis ([4]; 180 mg noribogaine (N = 6)): 0
- Psychiatric Disorders ([4]; 180 mg noribogaine (N = 6)): 0
- Respiratory, Thoracic and Mediastinal Disorders ([4]; 180 mg noribogaine (N = 6)): 0
- Rhinorrhoea ([4]; 180 mg noribogaine (N = 6)): 0
- Skin Discomfort ([4]; 180 mg noribogaine (N = 6)): 0
- Skin Irritation ([4]; 180 mg noribogaine (N = 6)): 0
- Skin and Subcutaneous Tissue Disorders ([4]; 180 mg noribogaine (N = 6)): 0
- Somnoience ([4]; 180 mg noribogaine (N = 6)): 0
- Tinnitus ([4]; 180 mg noribogaine (N = 6)): 0
- Tremor ([4]; 180 mg noribogaine (N = 6)): 0
- hallucinatory effects ([4]; 60, 120 or 180 mg single dose): no hallucinatory effects
